Measurements: patent US7476672B2, “Acetylenic compounds useful in treating inflammatory disorders” (Janssen Pharmaceutica N.V., priority 2002, dated 2009)
Read-outs that look alike come from different tables or passages of the source.

Experiments:
[1] = tested on: reactive oxygen species (ROS); details: human patients with rheumatoid arthritis and osteoarthritis, pharmacological doses; cited from earlier work
NADPH-oxidase = target: T1, NADPH-oxidase (Homo sapiens, UniProt P04839); assay: Oxidase Inhibition Assay (PMA-stimulated superoxide-mediated reduction of Cytochrome c, whole cells); assay type: cell-based
T1 construct: endogenous in cells; host or cells: human neutrophils isolated from buffy coat
T1 sequence (P04839 1-570): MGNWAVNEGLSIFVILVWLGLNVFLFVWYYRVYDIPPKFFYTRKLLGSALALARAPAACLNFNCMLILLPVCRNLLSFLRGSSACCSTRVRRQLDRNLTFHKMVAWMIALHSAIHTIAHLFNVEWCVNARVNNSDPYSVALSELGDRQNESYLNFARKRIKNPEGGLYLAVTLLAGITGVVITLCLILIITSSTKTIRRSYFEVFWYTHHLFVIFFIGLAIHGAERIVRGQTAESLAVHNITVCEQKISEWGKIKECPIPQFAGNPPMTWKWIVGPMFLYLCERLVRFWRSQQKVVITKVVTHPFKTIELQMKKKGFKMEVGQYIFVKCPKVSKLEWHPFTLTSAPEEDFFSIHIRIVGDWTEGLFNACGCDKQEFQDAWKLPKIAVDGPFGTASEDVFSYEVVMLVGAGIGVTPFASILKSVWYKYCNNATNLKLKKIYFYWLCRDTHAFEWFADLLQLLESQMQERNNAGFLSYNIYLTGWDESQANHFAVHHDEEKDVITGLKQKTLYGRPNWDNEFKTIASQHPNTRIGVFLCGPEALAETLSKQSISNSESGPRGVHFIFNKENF
Procedure: Whole cells (human neutrophils) are incubated with a pro-inflammatory agonist phorbol myristate acetate (PMA) in the presence or absence of test compound to measure the superoxide-mediated reduction of Cytochrome c at 550 nm. Inhibition of the oxidase is determined by a decreased absorbance at 550 nm, in response to test compound, relative to the absorbance seen with a vehicle control.
The buffy coat from one unit of blood is split evenly into four 50 mL tubes. To each tube 30 mL 3% Dextran (in 0.9% NaCl) is added and the tubes are inverted to mix. Tubes are allowed to sit undisturbed for 25 minutes. The resulting supernatant is recovered into four fresh tubes and centrifuged for 10 minutes at 600×g, 4° C. The supernatant is discarded and pellets are resuspended in 35 mL 0.9% saline. 10 mL Ficoll-Paque PLUS (Pharmacia Biotech AB) is layered beneath the cell suspension and centrifuged at 600×g for 40 minutes at room temperature. The supernatant is again discarded and tubes are tapped to loosen the resulting pellets. 20 mL 0.2% ice cold saline is added for 30 seconds followed by 20 mL 1.6% ice cold saline to lyse the remaining erythrocytes in the pellets. The pellets are centrifuged for 10 minutes at 600×g, 4° C., and the supernatant is discarded. The neutrophil pellets are resuspended in HBSS-glucose buffer (1 mg/mL), adding 2.5 mL to each tube for a total volume of 10 mL. The cell suspension is then counted on a hemocytometer.
The cell suspension is diluted to a concentration of 5×10^6/mL in HBSS-glucose and treated with 1 μg/mL Cytochalasin B (5 mg/mL DMSO) for 10 minutes at 37° C. in a shaking water bath. Cells are diluted to 6×10^5 cells/mL in 92 μM Cytochrome C for a final concentration of 5×10^4 cells/well.
The NADPH-oxidase assay is run on a Biomek 2000 workstation. The workstation adds 2.5 μL compound per well from source plates plus 12.5 μL per well 4 μM PMA (agonist). This volume is brought up to 100 μL total per well in the assay plates upon the addition of the prepared cells (85 μL). The final concentration of drug is 25 μM and PMA is 0.5 μM under these conditions.
The QC curve is a dose-response curve (from about 31.25 nM to about 4000 nM) for competitive binding against a known oxidase inhibitor such as DPI (diphenylene iodonium chloride). The format used for each compound tested is as follows:
The plates are incubated for 1 hour at 37° C. without CO2. The plates are then incubated at room temperature for 30 minutes and the absorbance is read at 550 nm.

[2] = tested on: potassium peroxochromate arthritis; details: mice, cited from earlier work

CN1C(C(=O)Nc2ccccn2)=C(O)c2ccccc2S1(=O)=O [Piroxicam]
reduction of levels of ROS [1]: 25%

c1ccc2c(c1)[I+]c1ccccc1-2 [DPI, diphenylene iodoniumchloride]
inhibition at 10 µM (NADPH-oxidase; QC wells G-H, 2.5 μL of 10 μM DPI, at 250 nm (so in the source), agonist added): ~70% | inhibition of the arthritis ([2]; 10 mmol/kg): Complete inhibition | inhibition of the arthritis ([2]; daily doses of 2.8 μmol/kg): 50%

Cc1cc(C#Cc2ccc(Cl)cc2)ccc1OCCNCc1ccc(CNCCC2CCCN2C)cc1 (stereo not drawn) [Compound 13, N^1-[2-[4-[(4-chlorophenyl)ethynyl]-2-methylphenoxy]ethyl]-N^4-[2-(1-methyl-2-pyrrolidinyl)ethyl]-1,4-benzenedimethanamine]
IC50 (NADPH-oxidase; human neutrophils, PMA 0.5 μM, absorbance at 550 nm): 1000 nM | melting point: 251 to 254 °C
